Laboratory results: patent US20090318500A1, “4-(2, 6-Dichloro-benzoylamino)-1H-pyrazole-3-carboxylic acid (1-methanesulphonyl-piperidin-4-yl)-amide for the Treatment of Cancer” (Astex Therapeutics limited, priority 2006, published 2009)
Read-outs that look alike come from different tables or passages of the source.

Key:
[1] = system: malignant cells from B-cell chronic lymphocytic leukemia (B-CLL); settings: in vitro; cited from earlier work
[2] = system: human tumour derived cell lines; assay: Xenograft studies; type: in vivo, nude mice; settings: sub-cutaneous xenografts, dosed orally
From the text: These biomarkers include suppression of phosphorylation of substrates of the cyclin dependent kinases e.g. retinoblastoma protein. The compound is effective when given in a range of different schedules including chronic dosing for several weeks.

[3] = system: transcription in HCT-116 cells
[4] = Vapour sorption/desorption analysis; type: physicochemical; settings: 25 °C
Protocol: Approximately 20 mg of sample was placed into a wire-mesh vapour sorption balance pan and loaded into an ‘IgaSorp’ vapour sorption balance (Hiden Analytical Instruments) held at 25±0.1° C. The sample was then dried by maintaining a 0% humidity environment (using mass flow control apparatus) until no further weight change was recorded. Subsequently, the sample was then subjected to a ramping profile from 0-90% relative humidity (% RH) at 10% RH increments, maintaining the sample at each step until equilibration had been attained (99.5% step completion).
Upon reaching equilibration, the % RH within the apparatus was ramped to the next step and the equilibration procedure repeated. After completion of the sorption cycle, the sample was then dried using the same procedure. The weight change during the sorption/desorption cycles was then monitored, allowing for the hygroscopic nature of the sample to be determined.

[5] = Determination of oral bioavailability; type: in vivo; settings: balb/c, mouse, plasma, 5 mg/kg, mice
Protocol: The oral bioavailability of the compound of formula (I) may be determined as follows.
The test compound is administered as a solution both I.V. and orally to balb/c mice at the following dose level and dose formulations; • 1 mg/kg IV formulated in 10%DMSO/90% (2-hydroxypropyl)-β-cyclodextrin (25% w/v); and • 5 mg/kg PO formulated in 10% DMSO/20% water/70% PEG200.
At various time points after dosing, blood samples are taken in heparinised tubes and the plasma fraction is collected for analysis. The analysis is undertaken by LC-MS/MS after protein precipitation and the samples are quantified by comparison with a standard calibration line constructed for the test compound. The area under the curve (AUC) is calculated from the plasma level vs time profile by standard methods. The oral bioavailability as a percentage is calculated from the following equation: […]

CDK1/CyclinB = molecular target: T1, CDK1/CyclinB (Homo sapiens, UniProt P06493); assay: Activated CDK1/CyclinB kinase inhibitory activity assay; type: biochemical
T1 construct: purchased Upstate Discovery
T1 sequence (P06493 whole entry): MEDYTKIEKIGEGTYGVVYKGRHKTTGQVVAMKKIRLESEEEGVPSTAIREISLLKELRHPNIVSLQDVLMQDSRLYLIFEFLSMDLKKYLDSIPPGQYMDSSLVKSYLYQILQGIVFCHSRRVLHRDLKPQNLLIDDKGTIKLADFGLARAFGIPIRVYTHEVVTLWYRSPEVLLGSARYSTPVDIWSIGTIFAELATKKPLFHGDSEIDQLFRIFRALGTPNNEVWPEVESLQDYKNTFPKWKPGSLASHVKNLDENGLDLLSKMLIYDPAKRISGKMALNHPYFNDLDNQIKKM
T1 sequence (P14635 whole entry partner): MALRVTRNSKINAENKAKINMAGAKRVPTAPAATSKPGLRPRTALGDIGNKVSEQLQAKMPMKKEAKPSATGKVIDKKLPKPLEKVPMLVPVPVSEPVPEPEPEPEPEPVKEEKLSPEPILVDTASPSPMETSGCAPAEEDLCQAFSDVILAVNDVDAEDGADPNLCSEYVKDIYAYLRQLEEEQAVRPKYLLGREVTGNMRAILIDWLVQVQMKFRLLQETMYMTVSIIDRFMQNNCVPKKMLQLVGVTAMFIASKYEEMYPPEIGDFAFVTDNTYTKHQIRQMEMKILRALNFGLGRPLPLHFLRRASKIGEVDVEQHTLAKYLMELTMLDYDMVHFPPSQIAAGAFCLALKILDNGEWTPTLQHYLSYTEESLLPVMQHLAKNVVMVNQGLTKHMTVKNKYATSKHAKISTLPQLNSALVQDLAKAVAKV
Protocol: CDK1/CyclinB assay is identical to the CDK2/CyclinA above except that CDK1/CyclinB (Upstate Discovery) is used and the enzyme is diluted to 6.25 nM.

HCT-116 cell line = assay: Anti-proliferative activity, Alamar Blue assay; type: cell-based, human; settings: for IC50: read-out: HCT-116 cell proliferation IC50, 72 hours with compound
Protocol: (§1) Inhibition of cell growth is measured using the Alamar Blue assay (Nociari, M. M, Shalev, A., Benias, P., Russo, C. Journal of Immunological Methods 1998, 213, 157-167). The method is based on the ability of viable cells to reduce resazurin to its fluorescent product resorufin. For each proliferation assay cells are plated onto 96 well plates and allowed to recover for 16 hours prior to the addition of inhibitor compounds for a further 72 hours. At the end of the incubation period 10% (v/v) Alamar Blue is added and incubated for a further 6 hours prior to determination of fluorescent product at 535nM ex/590nM em. In the case of the non-proliferating cell assay cells are maintained at confluence for 96 hour prior to the addition of inhibitor compounds for a further 72 hours. The number of viable cells is determined by Alamar Blue assay as before. Cell lines can be obtained from the ECACC (European Collection of cell Cultures).
as §1, with “535 nM ex/590 nM” for “535nM ex/590nM”, “EC ACC” for “ECACC”

Structure (SMILES)	Apoptosis of B-CLL cells [1]	Effect on tumour growth in xenografts [2]	IC50 for transcription higher than IC50 for proliferation [3]	Weight loss during initial drying ([4]; 0% RH)	Total weight increase ([4]; upon equilibration at 90% RH)	bioavailability [5]	IC50 (CDK1/CyclinB)	More potent anti-proliferative effect on HCT-116 compared to difluoro-analogue (HCT-116 cell line)	IC50 (HCT-116 cell line)	IC50 (HCT-116 cell line; listed as Compound of the Invention)
CC[C@H](CO)Nc1nc(NCc2ccccc2)c2ncn(C(C)C)c2n1 [CYC 202]	induce in vitro apoptosis	–	–	–	–	–	–	–	–	–
CN1CC[C@H](c2c(O)cc(O)c3c(=O)cc(-c4ccccc4Cl)oc23)[C@H](O)C1 [Flavopiridol]	induce in vitro apoptosis	–	–	–	–	–	–	–	–	–
CS(=O)(=O)N1CCC(NC(=O)c2n[nH]cc2NC(=O)c2c(Cl)cccc2Cl)CC1 [compound of the invention, 4-(2,6-dichloro-benzoylamino)-1H-pyrazole-3-carboxylic acid (1-methanesulphonyl-piperidin-4-yl)-amide]	–	inhibition of tumour growth	~100 fold	approximately 0.01%	0.24%	40 to 50%	< 1000 nM	6-7 fold	< 1000 nM	110 nM
